This is an account of results in PubChem BioAssay (NCI).

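Where inhibition never reached the appropriate level, the endpoint shown equals the highest concentration tested. Otherwise, values were interpolated linearly from a five-concentration, 48-hour dose response in 96-well plates. TGI: concentration producing complete growth inhibition.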 *1 amine or outer side, *2 acyl side, *3 side chain or, on linkers, in order; H or OH if unused. Where a SMILES comes first, the peptide text is derived from it. Bridges are numbered along the chain shown (N, C = ends). Roman numbers before positions name the chains, in order. [ ]: non-standard residue; d: D form. Actinocin(9to1) = Cc1c2oc3c(C)ccc(C(=O)[*:1])c3nc-2c(C(=O)[*:2])c(N)c1=O; Hyp = O=C(O)[CH]1C[CH](O)CN1; NMeV = CN[CH](C(=O)O)C(C)C; Sar = CNCC(=O)O

Some test systems named below: EKVX NSCLC; LOX IMVI melanoma; MALME-3M melanoma; MCF7 breast; NCI/ADR-RES ovarian; OVCAR-8 ovarian; SF-539 CNS; SK-MEL-5 melanoma; SNB-19 CNS; SNB-75 CNS.
Assay in all cases: DTP human tumour cell line panel, 48 h

`Cc1cc(S(=O)(=O)Nc2nncn2-c2ccc(Cl)cc2)c(S)cc1Cl`: the TGI with EKVX NSCLC, in the assay on LOX IMVI melanoma, with MALME-3M melanoma, in the assay on MCF7 breast, in the assay on NCI/ADR-RES ovarian and in the assay on OVCAR-8 ovarian was above 10 µM in each case. The TGI in the assay on SF-539 CNS, in the assay on SK-MEL-5 melanoma, in the assay with SNB-19 CNS and in the assay on SNB-75 CNS was above 10 µM in each case.
With `O=c1c2cnccc2cc2c3ccccc3ccn12`, the TGI in the assay on EKVX NSCLC, in the assay on LOX IMVI melanoma, in the assay with MALME-3M melanoma, with MCF7 breast, in the assay with NCI/ADR-RES ovarian and with OVCAR-8 ovarian was above 100 µM each time. The TGI in the assay with SF-539 CNS, with SK-MEL-5 melanoma, in the assay with SNB-19 CNS and with SNB-75 CNS was above 100 µM each time.
As for `COc1cc2c(cc1Oc1c(Oc3c(O)c(OC)cc4c3C(CC(C)C)N(C)CC4)c(OC)cc3c1C(CC(C)C)N(C)CC3)C(CC(C)C)N(C)CC2` (stereo not given), the total growth inhibition concentration (TGI) (as a rule, the concentration giving total growth inhibition) in the assay with EKVX NSCLC is 2.18 µM; in the assay with LOX IMVI melanoma it was 5.52 µM; in the assay with MALME-3M melanoma, 7.39 µM; in the assay on MCF7 breast it was 8.3 µM; with NCI/ADR-RES ovarian, 14.1 µM; with OVCAR-8 ovarian it was 8.24 µM. For the same compound, the TGI was found to be 1.45 µM with SF-539 CNS, 0.832 µM in the assay with SK-MEL-5 melanoma, 2.18 µM with SNB-19 CNS and 3.01 µM in the assay with SNB-75 CNS.
As for `CC1SC2(CCCCC2)N(NC(=O)CSc2nc3ccc(Cl)cc3c(=O)n2-c2ccccc2)C1=O` (stereo not given), the TGI with EKVX NSCLC is above 100 µM; with LOX IMVI melanoma, 37.4 µM; in the assay with MALME-3M melanoma it was 60.6 µM; with MCF7 breast, 32.2 µM; with NCI/ADR-RES ovarian, 50.2 µM; in the assay with OVCAR-8 ovarian, 59.1 µM. Also, the TGI with SF-539 CNS is 33 µM; with SK-MEL-5 melanoma, 27.9 µM; in the assay with SNB-19 CNS it was 66.9 µM; in the assay on SNB-75 CNS it was 50.4 µM.
On to `Cc1c2oc3c(C)ccc(C(=O)NC4C(=O)NC(C(C)C)C(=O)N5CC(O)CC5C(=O)N(C)CC(=O)N(C)C(C(C)C)C(=O)OC4C)c3nc-2c(C(=O)NC2C(=O)NC(C(C)C)C(=O)N3CC(O)CC3C(=O)N(C)CC(=O)N(C)C(C(C)C)C(=O)OC2C)c(N)c1=O` (stereo not given) (I: TV[Hyp][Sar][NMeV] / II: TV[Hyp][Sar][NMeV]; ester I:1-I:C, II:1-II:C; linker I:N-II:N via Actinocin(9to1); configuration not given here), for which the TGI in the assay on EKVX NSCLC, in the assay on LOX IMVI melanoma, in the assay on MALME-3M melanoma, in the assay with MCF7 breast, in the assay on NCI/ADR-RES ovarian and in the assay on OVCAR-8 ovarian was above 1 µM throughout. In addition, the TGI in the assay on SF-539 CNS, with SK-MEL-5 melanoma, with SNB-19 CNS and in the assay with SNB-75 CNS was above 1 µM throughout.
Regarding `COc1ccc(NC(C(N)=O)c2cc3cc(Br)ccc3nc2Cl)cc1` (stereo not given), the TGI with EKVX NSCLC, with LOX IMVI melanoma, in the assay on MALME-3M melanoma, in the assay with MCF7 breast, in the assay on NCI/ADR-RES ovarian and with OVCAR-8 ovarian was above 100 µM each time. The TGI with SF-539 CNS, with SK-MEL-5 melanoma, in the assay with SNB-19 CNS and with SNB-75 CNS was above 100 µM each time.
`CCSc1nc(=S)n(-c2ccccc2)c(C)c1C(C)=O`: the TGI with EKVX NSCLC, in the assay on LOX IMVI melanoma, in the assay on MALME-3M melanoma, in the assay with MCF7 breast, in the assay with NCI/ADR-RES ovarian and with OVCAR-8 ovarian was above 100 µM each time. The TGI in the assay on SF-539 CNS, with SK-MEL-5 melanoma, in the assay on SNB-19 CNS and in the assay on SNB-75 CNS was above 100 µM each time.
Turning to `Cc1nc2c(cc1OCc1ccccc1)C(=O)C1=C(C2=O)C2OC(=O)CC2OC1(C)C` (stereo not given), the TGI with EKVX NSCLC worked out at 3.63 µM; with LOX IMVI melanoma, 0.475 µM; in the assay on MALME-3M melanoma, 2.25 µM; in the assay with MCF7 breast it was 0.339 µM; in the assay with NCI/ADR-RES ovarian, 28.9 µM; in the assay on OVCAR-8 ovarian, 12.3 µM. Also, the TGI with SF-539 CNS is 2.04 µM; in the assay with SK-MEL-5 melanoma, 2.61 µM; in the assay with SNB-19 CNS, 5.65 µM; in the assay on SNB-75 CNS, 3.94 µM.
For `CCCCSC1=N/C(=C\c2ccc(N(C)C)cc2)C(=O)N1`, the TGI in the assay with EKVX NSCLC was 76.5 µM; in the assay on LOX IMVI melanoma, above 100 µM; in the assay on MALME-3M melanoma it was above 100 µM; with MCF7 breast, above 100 µM; in the assay with NCI/ADR-RES ovarian it was above 100 µM; with OVCAR-8 ovarian, above 100 µM. Also, the TGI was 63.9 µM with SF-539 CNS, above 100 µM with SK-MEL-5 melanoma, above 100 µM in the assay with SNB-19 CNS and above 100 µM with SNB-75 CNS.
Consider `c1ccc(Nc2nn3c(CCCCCCCCc4nnc5sc(Nc6ccccc6)nn45)nnc3s2)cc1`, for which the concentration for total growth inhibition (TGI) is above 100 µM in the assay on EKVX NSCLC; above 100 µM in the assay with LOX IMVI melanoma; above 100 µM in the assay with MALME-3M melanoma; 85.7 µM in the assay on MCF7 breast; above 100 µM with NCI/ADR-RES ovarian; above 100 µM in the assay with OVCAR-8 ovarian. Further, the TGI in the assay with SF-539 CNS is above 100 µM; with SK-MEL-5 melanoma, 24.6 µM; in the assay on SNB-19 CNS it was above 100 µM; with SNB-75 CNS it was 75.5 µM.
Consider `NC(=O)CC(N)C(=O)NC(Cc1ccccc1)C(=O)NC(Cc1ccccc1)NC(=O)C(Cc1c[nH]c2ccccc12)C(=O)O` (stereo not given), for which the TGI with EKVX NSCLC, in the assay on LOX IMVI melanoma, in the assay with MALME-3M melanoma, in the assay on MCF7 breast, with NCI/ADR-RES ovarian and in the assay with OVCAR-8 ovarian was above 100 µM each time. Further, the total growth inhibition concentration (TGI) in the assay with SF-539 CNS, with SK-MEL-5 melanoma, in the assay on SNB-19 CNS and with SNB-75 CNS was above 100 µM throughout.
With `CCOC(=O)/C=C(\C(=O)OCC)n1cc(Cl)c(=O)n(CC(=O)OCC)c1=O`, the TGI was 30.9 µM with EKVX NSCLC; 11.2 µM in the assay on LOX IMVI melanoma; 3.85 µM with MALME-3M melanoma; 8.07 µM with MCF7 breast; above 93.8 µM in the assay with NCI/ADR-RES ovarian; 8.59 µM in the assay on OVCAR-8 ovarian. Moreover, the concentration for total growth inhibition (TGI) in the assay on SF-539 CNS amounted to 28.5 µM; in the assay on SK-MEL-5 melanoma, 29.1 µM; in the assay with SNB-19 CNS it was 39 µM; with SNB-75 CNS it was 35.9 µM.
With `COC(=O)c1c(C)cccc1C1CN=NC12Cc1cc(C)cc(C)c1C2=O` (stereo not given), the TGI was above 100 µM in the assay on EKVX NSCLC; 41.5 µM in the assay with LOX IMVI melanoma; above 100 µM with MALME-3M melanoma; 29.1 µM in the assay on MCF7 breast; above 100 µM in the assay on NCI/ADR-RES ovarian; above 100 µM with OVCAR-8 ovarian. Further, the TGI with SF-539 CNS was above 100 µM; with SK-MEL-5 melanoma it was 44.6 µM; in the assay on SNB-19 CNS it was above 100 µM; in the assay on SNB-75 CNS, 99.3 µM.
